How the values were obtained:
BT-474 tumors = experiment: BT-474 xenograft tumor growth in athymic mice; format: in vivo, human; conditions: PO; for % Growth inhibition: 22 days
From the text: The in vivo anti-tumor activity of the compounds for use in the methods of the present invention can be determined by the amount of inhibition of tumor growth by a test compound relative to a control. The tumor growth inhibitory effects of various compounds can be measured according to the method of Corbett T. H., et al., “Tumor Induction Relationships in Development of Transplantable Cancers of the Colon in Mice for Chemotherapy Assays, with a Note on Carcinogen Structure”, Cancer Res., 35, 2434-2439 (1975) and Corbett T. H., et al., “A Mouse Colon-tumor Model for Experimental Therapy”, Cancer Chemother. Rep. (Part 2)”, 5, 169-186 (1975), with slight modifications. Tumors can be induced in the left flank of mice by subcutaneous (sc) injection of 1-5 million log phase cultured tumor cells suspended in 0.1 ml RPMI 1640 medium. After sufficient time has elapsed for the tumors to become palpable (˜100-150 mm^3 in size/5-6 mm in diameter) the test animals (athymic female mice) are treated with test compound (formulated at a concentration of 10 to 15 mg/ml in 5 Gelucire or 0.5% methyl cellulose) by the intravenous (iv) or oral (po) route of administration once or twice daily for 7 to 29 consecutive days. In order to determine an anti-tumor effect, the tumor is measured in millimeters with a Vernier caliper across two diameters and the tumor size (mm^3) is calculated using the formula: Tumor size (mm^3)=(W×W)/2×L (L=length and W=width), according to the methods of Geran, R. I., et al. “Protocols for Screening Chemical Agents and Natural Products Against Animal Tumors and Other Biological Systems”, Third Edition, Cancer Chemother. Rep., 3, 1-104 (1972). Results are expressed as percent inhibition, according to the formula: Inhibition Growth (%)=[100-{(% Growth of Treated/% Growth of Control)×100}]. The flank site of tumor implantation provides reproducible dose/response effects for a variety of chemotherapeutic agents, and the method of measurement (tumor diameter) is a reliable method for assessing tumor growth rates.
(§1) Exponentially growing BT-474 cells (RPMI 1640 with 10 mM HEPES, 10% FBS, and pen/strep [Gibco]) were harvested and inoculated SC (5 million cells/animal) into female athymic mice. Trochar pieces of BT-474 tumors were then implanted into the right flank of animals. BT-474 tumor bearing mice (50-320 mm^3 in size, N=40) were randomized in 7 groups consisting 5-6 animals each. Animals were treated with vehicle (PO, BID) or the test compound (PO, QD or BID) as described in Table 4. The tumor measurements and body weight changes were obtained on days 1, 6, 11, 15 and 22. Tumor volume was calculated by the following formula: Tumor volume (mm^3)═(W×W)/2×L (L=length & W=width). Blood samples (˜50 μl) were isolated at 0.5, 1, 2, 4 and 8 hrs after dosing on day 22 for PK-analysis. Tumors were isolated at 0.5 hr post-dosing on day 22 for PD-analysis by ELISA.
Statistical Analysis: ANOVA was conducted on the percentage growth data and planned comparisons were conducted between like-doses. The data were log transformed for the analysis due to the distribution of the values. The Dunnett-Tamahane procedure was used for the multiple comparison analysis.
Thus, oral anti-tumor efficacy of the test compound (QD and BID) was determined against human breast adenocarcinoma model BT-474 which overexpresses erbB2. The test compound administration (QD or BID) was efficacious and caused growth inhibition of BT-474 xenografts (FIGS. 5a and 5b). […] Due to a wide variation in the initial tumor volume, % growth of individual tumor was calculated and an average of each group was used to determine relative anti-tumor efficacy.

[1] = Body weight and tolerability, BT-474 study; format: in vivo, mice; conditions: PO
Protocol: as §1

COCC(=O)NC/C=C/c1ccc2ncnc(Nc3ccc(Oc4ccc(C)nc4)c(C)c3)c2c1 [Test Compound, E-2-Methoxy-N-(3-{4-(3-methyl-4-(6-methyl-pyridin-3-yloxy)-phenylamino)-quinazolin-6-yl}-allyl)-acetamide]
Tumor volume Day 1 (Mean ± SE) (BT-474 tumors; BID 50 mg/kg): 155 ± 42 mm^3
% Growth inhibition (BT-474 tumors; BID, 15 mg/kg (Total Daily Dose = 30 mg/kg)): 54%
Tumor volume Day 1 (Mean ± SE) (BT-474 tumors; BID, 15 mg/kg): 114 ± 47 mm^3
Tumor volume Day 22 (Mean ± SE) (BT-474 tumors; BID, 15 mg/kg): 520 ± 254 mm^3
% Growth inhibition (BT-474 tumors; BID, 30 mg/kg (Total Daily Dose = 60 mg/kg)): 68%
Tumor volume Day 1 (Mean ± SE) (BT-474 tumors; BID, 30 mg/kg): 161 ± 44 mm^3
Tumor volume Day 22 (Mean ± SE) (BT-474 tumors; BID, 30 mg/kg): 530 ± 240 mm^3
% Growth inhibition (BT-474 tumors; BID, 50 mg/kg (Total Daily Dose = 100 mg/kg)): 68%
Tumor volume Day 22 (Mean ± SE) (BT-474 tumors; BID, 50 mg/kg): 413 ± 98 mm^3
Tumor volume Day 1 (Mean ± SE) (BT-474 tumors; QD 50 mg/kg): 153 ± 40 mm^3
% Growth inhibition (BT-474 tumors; QD, 15 mg/kg): 22%
Tumor volume Day 1 (Mean ± SE) (BT-474 tumors; QD, 15 mg/kg): 78 ± 18 mm^3
Tumor volume Day 22 (Mean ± SE) (BT-474 tumors; QD, 15 mg/kg): 376 ± 79 mm^3
% Growth inhibition (BT-474 tumors; QD, 30 mg/kg): 33%
Tumor volume Day 1 (Mean ± SE) (BT-474 tumors; QD, 30 mg/kg): 139 ± 31 mm^3
Tumor volume Day 22 (Mean ± SE) (BT-474 tumors; QD, 30 mg/kg): 635 ± 189 mm^3
% Growth inhibition (BT-474 tumors; QD, 50 mg/kg): 35%
Tumor volume Day 22 (Mean ± SE) (BT-474 tumors; QD, 50 mg/kg): 608 ± 136 mm^3
average body weight Day 1 ([1]; BID 50 mg/kg): 24 g
average body weight Day 1 ([1]; BID, 15 mg/kg): 24 g
average body weight Day 22 ([1]; BID, 15 mg/kg): 29 g
average body weight Day 1 ([1]; BID, 30 mg/kg): 26 g
average body weight Day 22 ([1]; BID, 30 mg/kg): 30 g
average body weight Day 22 ([1]; BID, 50 mg/kg): 28 g
average body weight Day 1 ([1]; QD 50 mg/kg): 25 g
average body weight Day 1 ([1]; QD, 15 mg/kg): 25 g
average body weight Day 22 ([1]; QD, 15 mg/kg): 29 g
average body weight Day 1 ([1]; QD, 30 mg/kg): 23 g
average body weight Day 22 ([1]; QD, 30 mg/kg): 27 g
average body weight Day 22 ([1]; QD, 50 mg/kg): 29 g
tolerability, body weight loss or animal mortality ([1]; QD or BID, 22 days): well tolerated and there was no body weight loss or animal mortality

Source: patent publication US20050119288A1, “Dosing schedule for a novel anticancer agent” (Pfizer Inc, priority 2003, published 2005)
